Assay results as given in patent US20230219979A1, “PYRAZOLO[1,5-a]PYRIDINE COMPOUND, PREPARATION METHOD THEREFOR AND USE THEREOF” (SHENZHEN ZHONGGE BIOLOGICAL TECHNOLOGY CO., LTD., priority 2019, published 2023).

What was measured:
[1] = target: RET G810R kinase (Homo sapiens, UniProt P07949, G810R); assay: HTRF method for testing the inhibitory activity against RET G810R; assay type: biochemical; conditions: for IC50: HTRF; for inhibitory activity against G810R (in words): mutant strain of RET kinase
Chain of RET G810R kinase (P07949 29-1114 G810R): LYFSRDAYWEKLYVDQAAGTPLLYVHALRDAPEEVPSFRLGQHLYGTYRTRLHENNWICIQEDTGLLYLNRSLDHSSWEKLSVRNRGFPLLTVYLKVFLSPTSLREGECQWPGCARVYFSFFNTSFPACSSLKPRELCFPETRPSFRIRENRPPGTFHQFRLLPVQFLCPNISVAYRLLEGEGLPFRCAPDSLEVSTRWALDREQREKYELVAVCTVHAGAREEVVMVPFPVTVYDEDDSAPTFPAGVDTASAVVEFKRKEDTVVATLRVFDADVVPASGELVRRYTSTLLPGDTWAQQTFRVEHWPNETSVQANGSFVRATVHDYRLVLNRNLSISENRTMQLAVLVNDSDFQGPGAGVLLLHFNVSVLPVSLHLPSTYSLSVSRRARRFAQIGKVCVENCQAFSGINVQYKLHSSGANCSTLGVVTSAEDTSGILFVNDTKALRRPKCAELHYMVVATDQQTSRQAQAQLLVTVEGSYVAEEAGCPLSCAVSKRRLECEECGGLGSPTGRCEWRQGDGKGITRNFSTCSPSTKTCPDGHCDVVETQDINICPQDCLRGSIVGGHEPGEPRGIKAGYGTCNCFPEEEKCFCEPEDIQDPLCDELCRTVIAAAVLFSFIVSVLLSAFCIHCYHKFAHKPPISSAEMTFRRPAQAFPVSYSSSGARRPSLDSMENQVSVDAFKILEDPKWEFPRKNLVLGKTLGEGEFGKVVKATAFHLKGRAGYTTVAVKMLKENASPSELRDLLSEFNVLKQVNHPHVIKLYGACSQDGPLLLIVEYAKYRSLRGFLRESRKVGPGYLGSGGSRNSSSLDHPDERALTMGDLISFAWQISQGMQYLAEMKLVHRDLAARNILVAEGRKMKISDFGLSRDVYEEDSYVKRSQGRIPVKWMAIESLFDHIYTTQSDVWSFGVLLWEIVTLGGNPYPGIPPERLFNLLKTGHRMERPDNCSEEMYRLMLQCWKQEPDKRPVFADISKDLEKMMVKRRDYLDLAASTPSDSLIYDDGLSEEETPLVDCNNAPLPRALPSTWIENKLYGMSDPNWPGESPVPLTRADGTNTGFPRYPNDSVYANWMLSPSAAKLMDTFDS

[2] = target: T1, Ba/F3-KIF5B-RET cell (Homo sapiens, UniProt P07949); assay: CellTiter-Glo luminescence assay, inhibitory activity against Ba/F3-KIF5B-RET cell; assay type: cell-based; conditions: 72 h, read-out: Ba/F3-KIF5B-RET cell activity
T1 construct: fused on or other part: P33176 (Kinesin-1 heavy chain)
T1 sequence (P07949 whole entry, stated change not applied, the tested form may be a part): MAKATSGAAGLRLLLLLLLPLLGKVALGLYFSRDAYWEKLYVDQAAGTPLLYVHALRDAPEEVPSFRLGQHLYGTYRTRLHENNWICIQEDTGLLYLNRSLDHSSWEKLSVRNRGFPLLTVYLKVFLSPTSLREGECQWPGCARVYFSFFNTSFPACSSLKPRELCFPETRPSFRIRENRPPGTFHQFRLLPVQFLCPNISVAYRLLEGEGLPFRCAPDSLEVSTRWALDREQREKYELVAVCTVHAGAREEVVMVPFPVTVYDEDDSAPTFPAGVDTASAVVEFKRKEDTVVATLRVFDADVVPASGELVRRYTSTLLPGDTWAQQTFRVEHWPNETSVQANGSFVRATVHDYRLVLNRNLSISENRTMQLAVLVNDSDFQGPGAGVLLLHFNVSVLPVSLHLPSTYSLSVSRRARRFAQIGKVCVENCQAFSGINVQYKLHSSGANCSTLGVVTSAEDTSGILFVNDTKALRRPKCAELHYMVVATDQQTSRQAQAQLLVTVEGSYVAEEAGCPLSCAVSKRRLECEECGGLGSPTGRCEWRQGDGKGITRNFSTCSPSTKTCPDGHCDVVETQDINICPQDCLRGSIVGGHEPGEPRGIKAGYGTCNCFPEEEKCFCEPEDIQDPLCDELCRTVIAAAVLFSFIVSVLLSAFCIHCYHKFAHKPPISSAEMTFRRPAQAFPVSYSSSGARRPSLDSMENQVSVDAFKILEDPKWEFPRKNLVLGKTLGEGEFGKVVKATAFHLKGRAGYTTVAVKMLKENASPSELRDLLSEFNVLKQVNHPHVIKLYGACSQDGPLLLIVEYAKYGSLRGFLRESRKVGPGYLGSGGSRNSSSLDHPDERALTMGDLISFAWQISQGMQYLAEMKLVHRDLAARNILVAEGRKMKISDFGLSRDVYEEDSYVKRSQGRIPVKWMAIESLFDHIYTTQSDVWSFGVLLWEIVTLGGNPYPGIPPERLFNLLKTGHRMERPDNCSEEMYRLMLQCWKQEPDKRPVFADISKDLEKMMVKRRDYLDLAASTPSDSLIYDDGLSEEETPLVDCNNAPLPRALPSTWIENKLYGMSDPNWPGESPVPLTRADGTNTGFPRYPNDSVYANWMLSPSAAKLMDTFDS
Summary of the method: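 Ba/F3 cells stably expressing human KIF5B-RET, 800 per well, treated 72 h at 37° C with 10 compound concentrations from 5000 to 0.254 nM (0.5% DMSO). Viability by CellTiter-Glo luminescence; IC50 from curve fitting.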

[3] = target: RET G810S kinase (Homo sapiens, UniProt P07949, G810S); assay: HTRF method for testing the inhibitory activity against RET G810S; assay type: biochemical; conditions: for IC50: HTRF; for inhibitory activity against G810S (in words): mutant strain of RET kinase
Chain of RET G810S kinase (P07949 29-1114 G810S): as the sequence (P07949 29-1114 G810R) above, with R782S counted along it

[4] = target: Wild-type RET kinase (Homo sapiens, UniProt P07949); assay: HTRF method for testing the inhibitory activity of compounds against RET; assay type: biochemical; conditions: HTRF; read-out: Wild-type RET kinase
Chain of Wild-type RET kinase (P07949 29-1114): as the sequence (P07949 29-1114 G810R) above, with R782G counted along it

[5] = target: VEGFR2 kinase (Homo sapiens, UniProt P35968); assay: HTRF method for testing the inhibitory activity of compounds against VEGFR2; assay type: biochemical
Chain of VEGFR2 kinase (P35968 20-1356): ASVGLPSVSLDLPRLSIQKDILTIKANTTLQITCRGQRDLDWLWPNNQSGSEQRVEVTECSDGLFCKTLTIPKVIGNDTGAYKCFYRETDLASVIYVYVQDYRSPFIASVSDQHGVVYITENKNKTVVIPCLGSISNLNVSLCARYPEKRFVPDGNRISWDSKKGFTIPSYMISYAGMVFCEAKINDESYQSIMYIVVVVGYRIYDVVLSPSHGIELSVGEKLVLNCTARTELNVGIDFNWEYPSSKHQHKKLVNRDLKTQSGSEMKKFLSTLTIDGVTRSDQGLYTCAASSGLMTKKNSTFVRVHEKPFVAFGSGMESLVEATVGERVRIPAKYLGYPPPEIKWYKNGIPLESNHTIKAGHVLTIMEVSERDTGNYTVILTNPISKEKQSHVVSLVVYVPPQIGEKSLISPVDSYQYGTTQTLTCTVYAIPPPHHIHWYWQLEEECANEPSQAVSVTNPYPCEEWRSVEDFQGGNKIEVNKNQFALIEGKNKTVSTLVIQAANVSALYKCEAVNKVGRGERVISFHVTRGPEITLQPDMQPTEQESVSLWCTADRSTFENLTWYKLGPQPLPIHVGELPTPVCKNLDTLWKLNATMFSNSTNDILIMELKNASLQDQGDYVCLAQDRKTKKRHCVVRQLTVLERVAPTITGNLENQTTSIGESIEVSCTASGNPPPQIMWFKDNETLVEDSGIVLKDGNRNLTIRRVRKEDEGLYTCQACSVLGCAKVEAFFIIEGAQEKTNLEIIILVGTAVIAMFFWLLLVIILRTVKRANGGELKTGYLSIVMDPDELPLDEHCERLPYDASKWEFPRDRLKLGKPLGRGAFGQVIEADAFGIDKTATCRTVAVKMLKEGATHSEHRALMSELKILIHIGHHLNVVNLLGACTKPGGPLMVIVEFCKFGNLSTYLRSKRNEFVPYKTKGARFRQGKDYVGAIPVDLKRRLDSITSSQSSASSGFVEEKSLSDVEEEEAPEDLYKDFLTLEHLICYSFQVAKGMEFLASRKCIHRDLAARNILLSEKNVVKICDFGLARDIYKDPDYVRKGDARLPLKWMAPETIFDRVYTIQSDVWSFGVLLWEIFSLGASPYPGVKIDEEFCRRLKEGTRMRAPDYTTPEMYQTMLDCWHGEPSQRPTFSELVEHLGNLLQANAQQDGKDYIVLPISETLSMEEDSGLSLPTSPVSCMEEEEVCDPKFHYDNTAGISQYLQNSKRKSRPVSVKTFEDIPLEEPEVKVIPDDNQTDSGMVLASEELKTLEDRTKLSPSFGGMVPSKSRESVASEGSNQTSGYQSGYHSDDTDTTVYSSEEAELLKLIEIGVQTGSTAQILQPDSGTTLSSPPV

Row | Compound | IC50 [1] [nM] | inhibitory activity against G810R (in words) [1] | GI50 [2] [nM] | IC50 [3] [nM] | inhibitory activity against G810S (in words) [3] | IC50 [4] [nM] | IC50 [5] [nM]
1 | CNc1cc(-c2ccc(N3CC4CC(C3)N4Cc3ccc(OC)nc3)nc2)c2c(C#N)cnn2c1 [Compound 47, 4-(6-(6-((6-methoxypyridin-3-yl)methyl)-3,6-diazabicyclo[3.1.1]heptyl-3-yl)pyridin-3-yl)-6-(methylamino)pyrazolo[1,5-a]pyridine-3-carbonitrile] | 8.93 | good inhibitory activity | 1.42 | 1.23 | good inhibitory activity | 0.04 | 33.7
2 | COc1ccc(CN2C3CC2CN(c2ccc(-c4cc(Br)cn5ncc(C#N)c45)cn2)C3)cn1 [Compound 48] | 63.2 | good inhibitory activity | 105 | 13 | good inhibitory activity | 2.89 | 875
3 | COc1ccc(CN2C3CC2CN(c2ccc(-c4cc(NCCF)cn5ncc(C#N)c45)cn2)C3)cn1 [Compound 49, 6-((2-fluoroethyl)amino)-4-(6-(6-((6-methoxypyridin-3-yl)methyl)-3,6-diazabicyclo[3.1.1]hept-3-yl)pyridin-3-yl)pyrazolo[1,5-a]pyridine-3-carbonitrile] | 1.85 | good inhibitory activity | 1.52 | 0.53 | good inhibitory activity | 0.19 | 28.4
4 | COc1ccc(CN2C3CC2CN(c2ccc(-c4cc(NCC(F)F)cn5ncc(C#N)c45)cn2)C3)cn1 [Compound 50] | 5.65 | good inhibitory activity | 5.75 | 1.35 | good inhibitory activity | 0.13 | 59.3
5 | COc1ccc(CN2C3CC2CN(c2ccc(-c4cc(NCC(F)(F)F)cn5ncc(C#N)c45)cn2)C3)cn1 [Compound 56, 4-(6-(6-((6-methoxypyridin-3-yl)methyl)-3,6-diazabicyclo[3.1.1]heptan-3-yl)pyridin-3-yl)-6-((2,2,2-trifluoroethyl)amino)pyrazolo[1,5-a]pyridine-3-carbonitrile] | 19.3 | good inhibitory activity | 8.53 | 4.73 | good inhibitory activity | 0.2 | 103
6 | CCCNc1cc(-c2ccc(N3CC4CC(C3)N4Cc3ccc(OC)nc3)nc2)c2c(C#N)cnn2c1 [Compound 57, 4-(6-(6-((6-methoxypyridin-3-yl)methyl)-3,6-diazabicyclo[3.1.1]heptan-3-yl)pyridin-3-yl)-6-(propylamino)pyrazolo[1,5-a]pyridine-3-carbonitrile] | 10.6 | good inhibitory activity | 1.24 | 2.33 | good inhibitory activity | 0.32 | 31.3
7 | CCNc1cc(-c2ccc(N3CC4CC(C3)N4Cc3ccc(OC)nc3)nc2)c2c(C#N)cnn2c1 [Compound 62, 6-(ethylamino)-4-(6-(6-((6-methoxypyridin-3-yl)methyl)-3,6-diazabicyclo[3.1.1]heptan-3-yl)pyridin-3-yl)pyrazolo[1,5-a]pyridine-3-carbonitrile] | 6.22 | good inhibitory activity | 1.82 | 0.8 | good inhibitory activity | 0.21 | 20
